# From US20230059136A1, “THE COMPOUNDS AND COMPOSITIONS FOR TREATING CONDITIONS ASSOCIATED WITH NLRP ACTIVITY” (Novartis AG, priority 2018, published 2023)
# Test system: IL-1β production in PMA-differentiated THP-1 cells
# Assay: IL-1β production in PMA-differentiated THP-1 cells stimulated with gramicidin (hTHP-1 assay containing 2% fetal bovine serum)
# Format: cell-based, human
# Conditions: Homo sapiens, THP-1, Table B1; 2% fetal bovine serum; cells printed as numeric bound; read-out: hTHP-1 IC50 (Average IC50 of compounds in hTHP-1 assay)
# Method: Procedure 1: IL-1β Production in PMA-Differentiated THP-1 Cells Stimulated with Gramicidin.
# THP-1 cells were purchased from the American Type Culture Collection and sub-cultured according to instructions from the supplier. Cells were cultured in complete RPMI 1640 (containing 10% heat inactivated FBS, penicillin (100 units/ml) and streptomycin (100 μg/ml)), and maintained in log phase prior to experimental setup. Prior to the experiment, compounds were dissolved in dimethyl sulfoxide (DMSO) to generate a 30 mM stock. The compound stock was first pre-diluted in DMSO to 3, 0.34, 0.042 and 0.0083 mM intermediate concentrations and subsequently spotted using Echo550 liquid handler into an empty 384-well assay plate to achieve desired final concentration (e.g. 100, 33, 11, 3.7, 1.2, 0.41, 0.14, 0.046, 0.015, 0.0051, 0.0017 μM). DMSO was backfilled in the plate to achieve a final DMSO assay concentration of 0.37%. The plate was then sealed and stored at room temperature until required.
# THP-1 cells were treated with PMA (Phorbol 12-myristate 13-acetate) (20 ng/ml) for 16-18 hours. On the day of the experiment the media was removed and adherent cells were detached with trypsin for 5 minutes. Cells were then harvested, washed with complete RPMI 1640, spun down, and resuspended in RPMI 1640 (containing 2% heat inactivated FBS, penicillin (100 units/ml) and streptomycin (100 μg/ml). The cells were plated in the 384-well assay plate containing the spotted compounds at a density of 50,000 cells/well (final assay volume 50 μl). Cells were incubated with compounds for 1 hour and then stimulated with gramicidin (5 μM) (Enzo) for 2 hours. Plates were then centrifuged at 340 g for 5 min. Cell free supernatant (40 μL) was collected using a 96-channel PlateMaster (Gilson) and the production of IL-1β was evaluated by HTRF (cisbio). The plates were incubated for 18 h at 4° C. and read using the preset HTRF program (donor emission at 620 nm, acceptor emission at 668 nm) of the SpectraMax i3x spectrophotometer (Molecular Devices, software SoftMax 6). A vehicle only control and a dose titration of CRID3 (100-0.0017 μM) were run concurrently with each experiment.
# Procedure 2: IL-1β Production in PMA-Differentiated THP-1 Cells Stimulated with Gramicidin.
# THP-1 cells were purchased from the American Type Culture Collection and sub-cultured according to instructions from the supplier. Prior to experiments, cells were cultured in complete RPMI 1640 (containing 10% heat inactivated FBS, penicillin (100 units/ml) and streptomycin (100 μg/ml)), and maintained in log phase prior to experimental setup. Prior to the experiment THP-1 were treated with PMA (Phorbol 12-myristate 13-acetate) (20 ng/ml) for 16-18 hours. Compounds were dissolved in dimethyl sulfoxide (DMSO) to generate a 30 mM stock. On the day of the experiment the media was removed and adherent cells were detached with trypsin for 5 minutes. Cells were then harvested, washed with complete RPMI 1640, spun down, resuspended in RPMI 1640 (containing 2% heat inactivated FBS, penicillin (100 units/ml) and streptomycin (100 μg/ml). The cells were plated in a 384-well plate at a density of 50,000 cells/well (final assay volume 50 μl). Compounds were first dissolved in assay medium to obtain a 5× top concentration of 500 μM. 10 step dilutions (1:3) were then undertaken in assay medium containing 1.67% DMSO. 5× compound solutions were added to the culture medium to achieve desired final concentration (e.g. 100, 33, 11, 3.7, 1.2, 0.41, 0.14, 0.046, 0.015, 0.0051, 0.0017 μM). Final DMSO concentration was at 0.37%. Cells were incubated with compounds for 1 hour and then stimulated with gramicidin (5 μM) (Enzo) for 2 hours. Plates were then centrifuged at 340 g for 5 min. Cell free supernatant (40 μL) was collected using a 96-channel PlateMaster (Gilson) and the production of IL-1β was evaluated by HTRF (cisbio). A vehicle only control and a dose titration of CRID3 (100-0.0017 μM) were run concurrently with each experiment. […]
row,IC50 [µM],Compound
1,> 30,"CC(C)c1cc(F)cc(C(C)C)c1C(C)C(=O)N=S(N)(=O)c1cnc(C(C)(C)O)s1 (racemic) [Example 193, (S, S) and (S, R)-N-(amino (2-(2-hydroxypropan-2-yl)thiazol-5-yl)(oxo)-λ^6-sulfaneylidene)-2-(4-fluoro-2,6-diisopropylphenyl) propanamide]"

# Same assay, conditions: Homo sapiens, THP-1, Table B1; 2% fetal bovine serum; class symbols; read-out: hTHP-1 IC50 (Average IC50 of compounds in hTHP-1 assay)
row,IC50 [µM],Compound
1,1 to 5,"CC(C)c1cc(F)cc(C(C)C)c1CC(=O)NS(=N)(=O)c1ccc(C(C)(C)O)cc1 (single isomer, unassigned) [Example 2]"
2,0.2 to 1,"CC(C)c1cc(F)cc(C(C)C)c1CC(=O)NS(=N)(=O)c1ncc(C(C)(C)O)s1 (single isomer, unassigned) [Example 9]"

# Same assay, conditions: Homo sapiens, THP-1, Table B2; 2% fetal bovine serum; cells printed as numeric bound; read-out: hTHP-1 IC50 (Average IC50 of compounds in hTHP-1 assay)
row,IC50 [µM],Compound
1,> 30,"CNCc1ccc(S(N)(=O)=NC(=O)Cc2c(-c3ccccc3)ccc3c2CCC3)cc1 (racemic) [Example 380, (R) and (S)—N-(amino(4-((methylamino)methyl)phenyl)(oxo)-λ^6-sulfaneylidene)-2-(5-phenyl-2,3-dihydro-1H-inden-4-yl)acetamide]"
2,> 30,"COc1ccc(C(C)(C)O)cc1S(N)(=O)=NC(=O)Cc1c(C(C)C)cc(C#N)cc1C(C)C (racemic) [Example 388, (R) and (S)—N-(amino(5-(2-hydroxypropan-2-yl)-2-methoxyphenyl)(oxo)-λ^6-sulfaneylidene)-2-(4-cyano-2,6-diisopropylphenyl)acetamide]"

# Same assay, conditions: Homo sapiens, THP-1, Table B2; 2% fetal bovine serum; class symbols; read-out: hTHP-1 IC50 (Average IC50 of compounds in hTHP-1 assay)
row,IC50 [µM],Compound
1,5 to 30,"CNCc1ccc(S(N)(=O)=NC(=O)Cc2c(-c3ccccc3)ccc3c2CCC3)cc1 (racemic) [Example 381, (R) and (S)—N-(amino(4-((methylamino)methyl)phenyl)(oxo)-λ^6-sulfaneylidene)-2-(5-phenyl-2,3-dihydro-1H-inden-4-yl)acetamide]"
2,5 to 30,"COc1ccc(C(C)(C)O)cc1S(N)(=O)=NC(=O)Cc1c(C(C)C)cc(C#N)cc1C(C)C (racemic) [Example 387, (R) and (S)—N-(amino(5-(2-hydroxypropan-2-yl)-2-methoxyphenyl)(oxo)-λ^6-sulfaneylidene)-2-(4-cyano-2,6-diisopropylphenyl)acetamide]"

# Same assay, conditions: Table B1; 2% fetal bovine serum; class symbols; read-out: hTHP-1 IC50 (Average IC50 of compounds in hTHP-1 assay)
row,IC50 [µM],Compound
1,0.04 to 0.2,"CC(C)c1cc(C#N)c(F)c(C(C)C)c1CC(=O)N=S(N)(=O)c1ncc(C(C)(C)O)s1 (single isomer, unassigned) [Example 42]"
2,1 to 5,"CC(C)c1cc(C#N)c(F)c(C(C)C)c1CC(=O)N=S(N)(=O)c1ncc(C(C)(C)O)s1 (single isomer, unassigned) [Example 43]"
3,0.04 to 0.2,"CC(C)c1cc(C#N)c(F)c(C(C)C)c1CC(=O)N=S(N)(=O)c1sc(C(C)(C)O)cc1F (single isomer, unassigned) [Example 44, (S)- or (R)-2-(4-cyano-3-fluoro-2,6-diisopropylphenyl)-N-(3-fluoro-5-(2-hydroxypropan-2-yl)thiophen-2-ylsulfonimidoyl)acetamide]"
4,1 to 5,"CC(C)c1cc(C#N)c(F)c(C(C)C)c1CC(=O)N=S(N)(=O)c1sc(C(C)(C)O)cc1F (single isomer, unassigned) [Example 45, (R)- or (S)-2-(4-cyano-3-fluoro-2,6-diisopropylphenyl)-N-(3-fluoro-5-(2-hydroxypropan-2-yl)thiophen-2-ylsulfonimidoyl)acetamide]"
5,0.04 to 0.2,"CC(C)c1cc(OC(F)F)cc(C(C)C)c1CC(=O)N=S(N)(=O)c1cnc(C(C)(C)O)s1 (single isomer, unassigned) [Example 48, (S)- or (R)-2-(4-(difluoromethoxy)-2,6-diisopropylphenyl)-N-(2-(2-hydroxypropan-2-yl)thiazol-5-ylsulfonimidoyl)acetamide]"
6,5 to 30,"CC(C)c1cc(OC(F)F)cc(C(C)C)c1CC(=O)N=S(N)(=O)c1cnc(C(C)(C)O)s1 (single isomer, unassigned) [Example 49, (R)- or (S)-2-(4-(difluoromethoxy)-2,6-diisopropylphenyl)-N-(2-(2-hydroxypropan-2-yl)thiazol-5-ylsulfonimidoyl)acetamide]"
7,0.008 to 0.04,"CC(C)c1cc(F)cc(C(C)C)c1CC(=O)N=S(N)(=O)c1sc(C(C)(C)O)cc1F (single isomer, unassigned) [Example 50, (S)- or (R)-2-(4-fluoro-2,6-diisopropylphenyl)-N-(3-fluoro-5-(2-hydroxypropan-2-yl)thiophen-2-ylsulfonimidoyl)acetamide]"

row,Compound,IC50 [µM]
1,"2-(4-Fluoro-2,6-diisopropylphenyl)-N-(4-(2-hydroxypropan-2-yl)phenylsulfonimidoyl)acetamide [Example 1]",5 to 30

# Same assay, conditions: Table B2; 2% fetal bovine serum; class symbols; read-out: hTHP-1 IC50 (Average IC50 of compounds in hTHP-1 assay)
row,IC50 [µM],Compound
1,0.2 to 1,"CC(C)c1cc2c(c(C(C)C)c1CC(=O)N=S(N)(=O)c1ccn(CCO)n1)OC(F)(F)O2 (racemic) [Example 348, (R) and (S)—N-(amino(1-(2-hydroxyethyl)-1H-pyrazol-3-yl)(oxo)-λ^6-sulfaneylidene)-2-(2,2-difluoro-4,6-diisopropylbenzo[d][1,3]dioxol-5-yl)acetamide]"
2,5 to 30,"CC(C)c1cc2c(c(C(C)C)c1CC(=O)N=S(N)(=O)c1ccn(CCO)n1)OC(F)(F)O2 (racemic) [Example 349, (R) and (S)—N-(amino(1-(2-hydroxyethyl)-1H-pyrazol-3-yl)(oxo)-λ^6-sulfaneylidene)-2-(2,2-difluoro-4,6-diisopropylbenzo[d][1,3]dioxol-5-yl)acetamide]"
3,0.2 to 1,"CC(C)c1cc(C#N)c(F)c(C(C)C)c1CC(=O)N=S(N)(=O)c1sc(C(C)(C)O)nc1CO (racemic) [Example 352, (S) and (R)—N-(amino(4-(hydroxymethyl)-2-(2-hydroxypropan-2-yl)thiazol-5-yl)(oxo)-λ^6-sulfaneylidene)-2-(4-cyano-3-fluoro-2,6-diisopropylphenyl)acetamide]"
4,5 to 30,"CC(C)c1cc(C#N)c(F)c(C(C)C)c1CC(=O)N=S(N)(=O)c1sc(C(C)(C)O)nc1CO (racemic) [Example 353, (S) and (R)—N-(amino(4-(hydroxymethyl)-2-(2-hydroxypropan-2-yl)thiazol-5-yl)(oxo)-λ^6-sulfaneylidene)-2-(4-cyano-3-fluoro-2,6-diisopropylphenyl)acetamide]"
5,0.2 to 1,"CC(C)c1cc(F)cc(C(C)C)c1CC(=O)N=S(N)(=O)c1sc(C(C)(C)O)nc1CO (racemic) [Example 356, (R) and (S)—N-(amino(4-(hydroxymethyl)-2-(2-hydroxypropan-2-yl)thiazol-5-yl)(oxo)-λ^6-sulfaneylidene)-2-(4-fluoro-2,6-diisopropylphenyl)acetamide]"
6,5 to 30,"CC(C)c1cc(F)cc(C(C)C)c1CC(=O)N=S(N)(=O)c1sc(C(C)(C)O)nc1CO (racemic) [Example 357, (R) and (S)—N-(amino(4-(hydroxymethyl)-2-(2-hydroxypropan-2-yl)thiazol-5-yl)(oxo)-λ^6-sulfaneylidene)-2-(4-fluoro-2,6-diisopropylphenyl)acetamide]"
